# Entries after “also recorded” stand apart in the source; their conditions may differ.
# Key:
# DRO cells [1] = assay: DRO cell proliferation (cell counts over six days); assay type: cell-based, human; details: DRO cells treated every 48 hours over six days; read-out: IC50, concentration at which 50% of cell proliferation was inhibited
# Description: . Cells were treated every 48 hours over six days. Cell numbers were counted and data were plotted as mean values ±S.D. The thiazolidinediones inhibited cell proliferation of DRO cells in a dose responsive fashion (FIG. 3B). […]. The EC50 concentrations were in close agreement with the IC50 concentrations for each compound (FIG. 3B).
# . […] Cell numbers were counted and data were plotted as mean values ±S.D. (FIG. 9D).
# DRO90-1 (DRO) and ARO81 (ARO) cells were derived from primary cultures of human anaplastic thyroid carcinoma tumors that were obtained from Dr. G. J. Juillard (University of California-Los Angeles, Los Angeles, Calif.), and KTC-2 and KTC3 cells were obtained from Dr. Junichi Kurebayashi (Podtcheko et al., J. Clin. Endocrinol. Metab., 88:1889-1896 (2003) and Pushkarev et al., Molecular mechanisms of the Effects of Low Concentrations of Taxol in Anaplastic Thyroid Cancer Cells. Endocrinology: en. 2004-0127 (2004)). Cells were cultured in RPMI 1640 medium (Cellgro, Herndon Va.) supplemented with 10% charcoal-stripped fetal bovine serum (Hyclone), non-essential amino acids, sodium pyruvate, and penicillin-streptomycin-amphotericin B at 37° C. in a humidified atmosphere with 5% CO^2. Charcoal-stripped serum was used to exclude endogenous PPAR ligands contained in serum. For proliferation studies, cells were plated in triplicate in 12-well culture plates at initial concentrations of 2×10^4 cells/well. After overnight incubation, cells were treated with 10 nM RS5444 or DMSO diluent (Sigma) for 6 days with medium, and drug changed every 48 hours. After 6 days, cells were washed with PBS (Cellgro), trypsinized, and counted by Beckman Coulter Counter (Beckman Instruments, Fullerton Calif.). […]. Cells were treated with either DMSO or 10 nM RS5444 (24 hours). After treatment, phase images were obtained on an inverted microscope. For real time PCR studies, cells were plated in 60 mm plates at 50% confluence and treated with 10 nM RS5444 for indicated incubation periods. […].
# Cells were either plated in triplicate at 7.5×10^4 cells/mL in 6-well plates or 2×10^4 cells/well in 12-well plates, allowed to adhere overnight, and then transfected for 24 to 72 hours with 2 to 5 μg of either scrambled, p21^WAF1/CIP1 (1022539), RhoB (SI00058933) or PPAR-γ-specific siRNA duplexes (Qiagen Valencia, Calif.) using RNAiFect reagent (Qiagen). The DNA target sequence for PPAR-γ was 5′-[…]-3′. After transfection, cells in the 6-well plates were treated with either DMSO diluent or 10 nM RS5444 for 24 hours and then analyzed by either real time PCR or immunoblotting. Cells in the 12-well plates were exposed for 6 days with medium, and drug changed every 48 hours. After 6 days, cells were washed with PBS (Cellgro), trypsinized, and counted by Beckman Coulter Counter.
# DRO = assay: ATC (DRO) tumor growth in athymic nude mice, RS5444 in diet; assay type: in vivo; details: for tumor growth inhibition: started one week prior to DRO implantation
# Description: RS5444 was added to the rodent diet one week prior to tumor implantation with DRO. […] Suspensions of 1×10^6/0.1 mL DRO or ARO cells in RPMI medium were injected subcutaneously in one flank of 3 to 4 week old athymic female nude mice. […] Mice weighed between 20-25 grams and consumed on average 4 grams of food per day (1 mg/day of RS5444).
# DRO cells [2] = assay: Real-time PCR of RhoB and p21 RNA in DRO cells; assay type: cell-based, human; details: 10 nM vs DMSO, time course
# Description: Experiments also were conducted to examine the expression of RhoB in response to treatment with a PPARγ agonist. Cells from the human ATC cell line, DRO, were treated at various time points during 48 hours with DMSO control (0.1%) or 10 nM RS5444. RhoB and p21^WAF1/CIP1 RNA levels were measured using real-time PCR. Data were normalized to DMSO untreated controls for each time point measured.
# Total mRNA was isolated from cells using RNAqueous (Ambion) per the manufacturer's protocol followed by ethanol precipitation. Total RNA from normal thyroid tissue was extracted using TOTALLY RNA (Ambion) according to manufacturer's protocol followed by Chroma Spin Column 100 (BD Bioscience). Two-step quantitative reverse transcriptase-mediated real-time PCR (QPCR) was used to measure changes in mRNA levels of target genes in ATC cells. Total RNA was reverse transcribed using the High-Capacity cDNA Archive kit (Applied Biosystems) per the manufacturer's instructions. […] Forty amplification cycles were performed on the Applied Biosystems Prism 7900 sequence detector, with cycle threshold (Ct) values calculated using the Sequence Detection System software (SDS 2.2.2. Applied Biosystems) normalized against 18S rRNA levels. Fold change values either between treated (RS5444) and control samples were calculated using the ΔΔCt method (Livak and Schmittgen, Methods, 25:402-408 (2001)).
# PPARγ = biological target: T1, PPARγ (Homo sapiens, UniProt P37231); assay: PPAR isoform luciferase reporter in transfected RIE cells; assay type: cell-based; set-up: expressed in transfected cells; host or cells: RIE (rat small intestinal cell line); details: RIE cells transfected with PPARγ and PPRE3-tk-luc, 10 nM
# T1 sequence (P37231 1-505): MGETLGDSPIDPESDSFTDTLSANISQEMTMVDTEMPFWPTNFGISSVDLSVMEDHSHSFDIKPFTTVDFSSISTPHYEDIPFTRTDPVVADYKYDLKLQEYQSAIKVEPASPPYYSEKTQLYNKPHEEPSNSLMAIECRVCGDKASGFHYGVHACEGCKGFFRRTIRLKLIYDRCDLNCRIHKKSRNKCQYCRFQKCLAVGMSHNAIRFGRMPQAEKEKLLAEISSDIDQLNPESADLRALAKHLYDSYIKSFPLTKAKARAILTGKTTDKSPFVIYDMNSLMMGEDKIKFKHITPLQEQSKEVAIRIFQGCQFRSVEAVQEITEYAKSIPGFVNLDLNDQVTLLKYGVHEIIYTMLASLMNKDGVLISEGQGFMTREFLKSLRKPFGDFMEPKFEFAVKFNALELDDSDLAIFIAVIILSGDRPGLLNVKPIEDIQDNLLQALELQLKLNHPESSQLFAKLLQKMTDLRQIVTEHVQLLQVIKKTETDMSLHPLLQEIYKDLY
# Excerpt: Increased luciferase activity was only observed in the presence of PPARγ and PPRE3-tk-luc.
compound,measurement,setting,value
Cc1cc(Oc2ccc3nc(COc4ccc(CC5SC(=O)NC5=O)cc4)n(C)c3c2)cc(C)c1N (stereo not shown) [RS5444],IC50,DRO cells [1],~0.8 nM
same,tumor growth inhibition,DRO; 0.00025% in diet,No inhibition of tumor growth
same,tumor growth inhibition,DRO; 0.0025% in diet,54.5%
same,mice that did not form tumors,DRO; 0.025% diet group,5 of 10
same,tumor growth inhibition,DRO; 0.025% in diet,89.7%
same,RhoB mRNA levels (real-time PCR),DRO cells [2],RhoB mRNA induction as early as 2 hours; also recorded: significantly elevated at 12 hours through 48 hours
same,activation of PPARγ (luciferase activity),PPARγ,specifically activates PPARγ

# — patent US20080167532A1, “ASSESSING CANCER TREATMENT RESPONSIVENESS” (Mayo Foundation for Medical Education and Research, priority 2006, published 2008)
